Source: ChEMBL document CHEMBL1201862, “PubChem BioAssay data set” (2004)
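Growth conditions: 96-well plates. Treatment: test compound, 48 hours, 5 concentrations. Analysis: linear interpolation between bracketing concentrations; unreached endpoints set to highest concentration. GI50 = concentration required for 50% inhibition of growth.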 Calls of active or inactive are those of the source. Rule as the data show it: active = GI50 up to about 1.1 µM and inactive = higher.

How the values were obtained:
Assay in all cases: NCI anticancer screen, dose series, 48 h
[1] = system: RPMI-8226
[2] = system: SN12C
[3] = system: DU-145
[4] = system: UO-31
[5] = system: NCI-H23
[6] = system: TK-10
[7] = system: K562
[8] = system: CCRF-CEM
[9] = system: SF-295
[10] = system: MDA-MB-435
[11] = system: Malme-3M
[12] = system: OVCAR-5
[13] = system: SK-MEL-5
[14] = system: MOLT-4
[15] = system: NCI-H522
[16] = system: MCF7
[17] = system: HOP-62
[18] = system: HCT-116
[19] = system: Hs-578T
[20] = system: A549
[21] = system: UACC-62
[22] = system: SNB-75
[23] = system: NCI-H460
[24] = system: HCC 2998
[25] = system: SF-268
[26] = system: T47D
[27] = system: SW-620
[28] = system: SR
[29] = system: UACC-257
[30] = system: SNB-19
[31] = system: NCI-H226
[32] = system: SF-539
[33] = system: NCI/ADR-RES
[34] = system: ACHN
[35] = system: M14
[36] = system: HL-60
[37] = system: HCT-15
[38] = system: 786-0
[39] = system: LOX IMVI
[40] = system: U-251
[41] = system: IGROV-1
[42] = system: EKVX
[43] = system: PC-3
[44] = system: RXF 393
[45] = system: OVCAR-3
[46] = system: SK-MEL-28
[47] = system: OVCAR-8
[48] = system: KM12
[49] = system: HT-29
[50] = system: CAKI-1
[51] = system: MDA-N
[52] = system: MDA-MB-231
[53] = system: SK-OV-3
[54] = system: SK-MEL-2
[55] = system: OVCAR-4
[56] = system: A498
[57] = system: HOP-92
[58] = system: COLO 205

CCOC(=O)c1ccc(Nc2nc3ccc(C(F)(F)F)cc3nc2-c2ccccc2)cc1
GI50 [1]: > 100 µM (inactive) | GI50 [2]: 74.8 µM (inactive) | GI50 [3]: > 100 µM (inactive) | GI50 [4]: > 100 µM (inactive) | GI50 [5]: > 100 µM (inactive) | GI50 [6]: > 100 µM (inactive) | GI50 [7]: > 100 µM (inactive) | GI50 [8]: 63.4 µM (inactive) | GI50 [9]: 56.8 µM (inactive) | GI50 [10]: > 100 µM (inactive) | GI50 [11]: > 100 µM (inactive) | GI50 [12]: > 100 µM (inactive) | GI50 [13]: > 100 µM (inactive) | GI50 [14]: 38.1 µM (inactive) | GI50 [15]: 47.9 µM (inactive) | GI50 [16]: > 100 µM (inactive) | GI50 [17]: 80 µM (inactive) | GI50 [18]: 84.9 µM (inactive) | GI50 [19]: 60.5 µM (inactive) | GI50 [20]: > 100 µM (inactive) | GI50 [21]: 28.2 µM (inactive) | GI50 [22]: 41.3 µM (inactive) | GI50 [23]: > 100 µM (inactive) | GI50 [24]: 84.1 µM (inactive) | GI50 [25]: > 100 µM (inactive) | GI50 [26]: 20.5 µM (inactive) | GI50 [27]: > 100 µM (inactive) | GI50 [28]: > 100 µM (inactive) | GI50 [29]: > 100 µM (inactive) | GI50 [30]: > 100 µM (inactive) | GI50 [31]: > 100 µM (inactive) | GI50 [32]: > 100 µM (inactive) | GI50 [33]: > 100 µM (inactive) | GI50 [34]: > 100 µM (inactive) | GI50 [35]: > 100 µM (inactive) | GI50 [36]: 61.1 µM (inactive) | GI50 [37]: 15.4 µM | GI50 [38]: > 100 µM (inactive) | GI50 [39]: > 100 µM (inactive) | GI50 [40]: 53 µM (inactive) | GI50 [41]: 71.9 µM (inactive) | GI50 [42]: > 100 µM (inactive) | GI50 [43]: 38 µM (inactive) | GI50 [44]: 97.3 µM (inactive) | GI50 [45]: > 100 µM (inactive) | GI50 [46]: > 100 µM (inactive) | GI50 [47]: > 100 µM (inactive) | GI50 [48]: > 100 µM (inactive) | GI50 [49]: 67.9 µM (inactive) | GI50 [50]: > 100 µM (inactive)

C[n+]1c(-c2ccccc2)cc2/c(=C\c3ccccc3)c3ccccc3n21
GI50 [2]: 0.308 µM (active) | GI50 [3]: 2.54 µM (inactive) | GI50 [4]: 2.95 µM (inactive) | GI50 [5]: 2.68 µM (inactive) | GI50 [6]: 2.72 µM (inactive) | GI50 [51]: 0.948 µM (active) | GI50 [7]: 7.03 µM (inactive) | GI50 [52]: 0.661 µM (active) | GI50 [8]: 0.582 µM (active) | GI50 [9]: 4.93 µM (inactive) | GI50 [10]: 0.726 µM (active) | GI50 [11]: 1.14 µM (inactive) | GI50 [12]: 3.4 µM (inactive) | GI50 [13]: 0.667 µM (active) | GI50 [53]: 4.14 µM (inactive) | GI50 [14]: 1.73 µM (inactive) | GI50 [15]: 0.363 µM (active) | GI50 [16]: 1.34 µM (inactive) | GI50 [17]: 2.43 µM (inactive) | GI50 [18]: 1.25 µM (inactive) | GI50 [19]: 0.116 µM (active) | GI50 [20]: 3.96 µM (inactive) | GI50 [21]: 1.3 µM (inactive) | GI50 [22]: 0.422 µM (active) | GI50 [24]: 3.84 µM (inactive) | GI50 [25]: 0.593 µM (active) | GI50 [27]: 1.06 µM (active) | GI50 [54]: 0.832 µM (active) | GI50 [55]: 1.62 µM (inactive) | GI50 [29]: 0.991 µM (active) | GI50 [30]: 0.731 µM (active) | GI50 [31]: 0.418 µM (active) | GI50 [32]: 0.908 µM (active) | GI50 [33]: 14.6 µM (inactive) | GI50 [34]: 3.13 µM (inactive) | GI50 [56]: 6.32 µM (inactive) | GI50 [35]: 1.27 µM (inactive) | GI50 [36]: 0.0452 µM (active) | GI50 [37]: 3.47 µM | GI50 [57]: 1.69 µM (inactive) | GI50 [38]: 0.906 µM (active) | GI50 [39]: 1.25 µM (inactive) | GI50 [40]: 0.233 µM (active) | GI50 [41]: 1.09 µM (active) | GI50 [58]: 0.339 µM (active) | GI50 [42]: 1.93 µM (inactive) | GI50 [43]: 0.918 µM (active) | GI50 [44]: 1.36 µM (inactive) | GI50 [45]: 1.34 µM (inactive) | GI50 [46]: 0.871 µM (active) | GI50 [47]: 0.361 µM (active) | GI50 [48]: 0.738 µM (active) | GI50 [49]: 1.06 µM (active) | GI50 [50]: 2.94 µM (inactive)
